In ChEMBL document CHEMBL1151873, “Protein tyrosine phosphatase 1B inhibitory effects of depsidone and pseudodepsidone metabolites from the Antarctic lichen Stereocaulon alpinum” (Bioorg Med Chem Lett, 2009):
Activity calls are given as the source filed them. The calls are words filed in the database; no cut-off is given here.

Key:
[1] = target: T1, Tyrosine-protein phosphatase non-receptor type 1 (Homo sapiens, UniProt P18031); experiment: (§1) Inhibition of PTP1B
T1 sequence (P18031 whole entry): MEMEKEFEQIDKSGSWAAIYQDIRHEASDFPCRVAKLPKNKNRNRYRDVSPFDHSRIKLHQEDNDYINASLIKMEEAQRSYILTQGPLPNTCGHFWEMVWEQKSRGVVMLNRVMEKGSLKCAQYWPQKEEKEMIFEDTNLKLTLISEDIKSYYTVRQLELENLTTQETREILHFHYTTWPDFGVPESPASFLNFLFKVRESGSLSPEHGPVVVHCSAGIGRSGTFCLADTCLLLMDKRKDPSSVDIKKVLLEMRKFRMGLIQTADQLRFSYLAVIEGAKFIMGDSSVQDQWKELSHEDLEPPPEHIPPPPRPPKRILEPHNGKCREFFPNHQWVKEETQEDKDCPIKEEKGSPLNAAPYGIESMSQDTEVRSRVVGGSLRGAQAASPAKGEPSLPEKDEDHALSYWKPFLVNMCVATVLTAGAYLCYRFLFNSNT

[2] = target: T2, Tyrosine-protein phosphatase non-receptor type 1 (Homo sapiens) (UniProt P18031); experiment: as §1
T2 sequence (whole entry): T1 sequence (P18031 whole entry)

[3] = target: T2, Tyrosine-protein phosphatase non-receptor type 1 (Homo sapiens); experiment: Non competitive inhibition of PTP1B assessed as inhibition of substrate catalysis by Lineweaver-Burke plot

| IC50 [1] [µM] | Activity [2] | Activity [3] | SMILES |
| --- | --- | --- | --- |
| 3.02 |  |  | CCCCCc1c2c(cc(O)c1C(=O)OC)OC(=O)c1c(cc(OC)cc1C(=O)CCCC)O2 |
|  | Dose-dependent effect | Active | CCCCCc1c2c(cc(O)c1C(=O)O)OC(=O)c1c(cc(OC)cc1C(=O)CCCC)O2 |
| 7.42 |  |  | CCCCCc1c2c(cc(OC)c1C(=O)OC)OC(=O)c1c(cc(OC)cc1C(=O)CCCC)O2 |
| 2.48 | Dose-dependent effect |  | CCCCCc1c(Oc2cc(OC)cc3c2C(=O)OC3(CCCC)OC)c(O)cc(O)c1C(=O)O (stereo not drawn) |

The next lines start with the molecule.

| SMILES | IC50 [1] [µM] | Activity [2] | Activity [3] |
| --- | --- | --- | --- |
| COC(=O)c1c(C)cc(O)cc1O [METHYL ORSELLINATE] | > 200 |  |  |
| COc1cc(O)c(C(C)=O)c(O)c1C | > 200 |  |  |
| COC(=O)c1c(C)cc(OC(=O)c2c(C)cc(O)c(C=O)c2O)c(C)c1O [ATRANORIN] | 63.5 |  |  |
| COC(=O)c1c(C)cc(O)c(C=O)c1O [METHYL HAEMATOMMATE] | > 200 |  |  |
| CCCCCc1cc(O)cc(O)c1Oc1cc(OC)cc2c1C(=O)OC2(CCCC)OC (stereo not drawn) | 6.86 | Dose-dependent effect | Active |
